# Measured values: patent US6720313B1, “Biocidal composition containing phosphite ions” (Mattersmiths Holdings Limited, priority 1998, dated 2004)
# Where two headings read alike, the source gives them in different places.
# Legend:
# [1] = assay type: physicochemical
# Excerpt: We decreased the pH by addition of phosphorous acid.
# We have achieved solubility of fenpropimorph of as much as 10% by weight. This high level of solubility remains when that active is also the presence of 10-20% of other biocides.
# [2] = cited from earlier work
# [3] = metal oxinates; cited from earlier work
# [4] = acids including phosphorous acid; cited from earlier work
# [5] = Protocol: These are prepared by addition of stoicheiometric quantities of precursors of the compounds concerned to produce the salt desired.
# [6] = cited from earlier work; remark: listed apart in the source
# [7] = solubility studies of oxine copper using the invention; assay type: physicochemical
# Excerpt: We have carried out many solubility studies using the technology of this invention. For example, we are able to produce solutions stable at ambient temperature of oxine copper at concentrations greater than 100 grams per 200 mls of final product. Because the specific gravity of such solutions is approximately […] this yields a solution of oxine copper of 50 per cent weight/volume or more. This concentration is commercially viable to use and eliminates many of the potentially toxic or flammable formulation aids used in prior art solubilisation of oxine copper.
# [8] = precipitation of solubilised biocides on addition of a higher pH solution; assay type: physicochemical; settings: aqueous solutions, pH raised to greater than 5
# Excerpt: We carried out several studies, some in aqueous systems and others on wood subsequent to the biocide formulation being applied, wherein we applied a further solution with higher pH to increase the pH to greater than 5.
# [9] = system: natural fungal inoculum on mini discs of Pinus radiata; test: mini disc trial of fungicidal efficacy; assay type: cell-based; settings: compared with untreated control
# Protocol: For example, a mini disc trial, typically used to assess formulation efficacy, was used to establish relative efficacy of various formulations. Included in the trial were formulations using both phosphoric acid and phosphorous acid.
# These examples were then diluted in water to produce stable solutions and then tested against a natural fungal inoculum on mini discs of Pinus radiata to determine fungicidal efficacy. The following table, Table 5, illustrates the relative performance of each biocide after 3 weeks in an incubator.
# These formulations were then diluted and tested using the mini disc method. Also included was an industry standard based on the formulation of U.S. Pat. No. 4,950,685 coded in the trial as KC1 and listed in Table 7.
# The formulations were then tested using a mini disc trial with results as disclosed in Table 9.
Molecule,pH complete precipitation [3],pH initial precipitation [3],further results
"CC(Cc1ccc(C(C)(C)C)cc1)CN1C[C@@H](C)O[C@@H](C)C1 (some centres unmarked) [fenpropimorph, dimethylethyl phenyl methylpropyl dimethylmorpholine]",,,solubility achieved [1]: ≤ 10 % by weight; Solubility ([2]; pH 4.4): 7300 µg/mL; Solubility ([2]; pH 7): 4.3 µg/mL; Solubility ([2]; pH 9): 3.5 µg/mL
[Cd] [Cadmium],5.5-13.2,4.5,
Titanium,4.8-8.6,3.6,
mancozeb,,,stability to acids [4]: decomposed by acids
Bismuth,5.2-9.4,3.7,
[Ni+2].[O-]c1cccc2cccnc12.[O-]c1cccc2cccnc12 [Nickel],4.6-10.0,3.5,pH for dissolution [5]: <4.5
copper,>3.3,3.0,Solubility at pH = 7 [5]: Insoluble; pH for dissolution ([5]; transition metal phosphites): <3.5
Tungsten,5.0-5.7,3.5,
maneb,,,stability to acids [4]: decomposed by acids
[O-]c1cccc2cccnc12.[O-]c1cccc2cccnc12.[Pb+2] [Lead],8.4-12.3,4.8,
[Fe+3].[O-]c1cccc2cccnc12.[O-]c1cccc2cccnc12.[O-]c1cccc2cccnc12 [Iron],4.1-11.2,2.5,"pH for dissolution ([5]; transition metal phosphites): <3.5; Solubility at pH = 7 ([5]; transition metal phosphites, pH = 7): Insoluble"
[Co+2].[O-]c1cccc2cccnc12.[O-]c1cccc2cccnc12 [Cobalt],4.9-11.6,3.6,pH for dissolution ([5]; transition metal phosphites): <4.5
arsenic,,,LD50 Rat [6]: 15 to 293 mg/kg
copper 8-hydroxyquinolinolate [oxine copper],greater than 3.3,,"solution concentration weight/volume ([7]; ambient temperature): ≥ 50 per cent weight/volume; concentration of solutions stable at ambient temperature ([7]; phosphorous acid solution): greater than 100 grams per 200 mls of final product; effect of adding a solution of higher pH [8]: immediate precipitation; Oral LD50 Rat ([6]; in vivo, po): 10,000 mg/kg"
[Al+3].[O-]c1cccc2cccnc12.[O-]c1cccc2cccnc12.[O-]c1cccc2cccnc12 [Aluminium],4.7-9.8,2.9,
OP(O)O [phosphorous acid],,,fungicidal activity of phosphorous acid alone [9]: marginal improvement over the untreated control
[Mn+2] [Manganese],5.9-9.5,4.3,Solubility at pH = 7 [5]: Insoluble; pH for dissolution ([5]; transition metal phosphites): <4.5
"COC(=O)Nc1nc2ccccc2[nH]1 [Carbendazim, methyl benzimidazoyl carbamate]",,,effect of adding a solution of higher pH [8]: immediate precipitation
phosethyl-Al,,,stability to acids [4]: decomposed by acids
[Ca] [Calcium],9.2-12.7,6.8,
[Mg] [Magnesium],>8.7,7.0,
[O-]c1cccc2cccnc12.[O-]c1cccc2cccnc12.[Zn+2] [Zinc],>4.4,3.3,
[Mo] [Molybdenum],3.6-7.3,2.0,
